# According to patent US8445511B2, “Quinoline or quinoxaline derivatives for treating neurodegenerative diseases” (Centre National de la Recherche Scientifique (SNRS), priority 2008, dated 2013):
# Experiments:
# GABAergic neurons = assay: Measurement of tritiated GABA reuptake in primary mesencephalic cultures; assay type: cell-based, rat; settings: 12 days of culture; 10 nM and 100 nM; FIG. 6
# Method: The primary cultures are treated and cultivated as previously indicated with 0.5 embryo per well in a 24-well plate for 12 days. The medium is then replaced by a medium lacking serum and enriched with glucose (PBS+5 mM glucose). The cells are incubated in this medium for 10 minutes. 50 μl of tritiated GABA in solution (20 μl of 1 mCi/ml ^3H-GABA in 1 ml PBS) is added in each well and the cells are incubated for 5 minutes at 37° C. Since GABA is taken back up very quickly, it is important to be fast when adding reagents and not to handle too many wells at the same time.
# All wells except one are then washed twice with PBS, and then 500 μl distilled water is added. The cells are scraped and the liquid transferred to scintillation vials containing 7 ml scintillation liquid (Biodegradable Counting Scintillant-liquid scintillation spectroscopy, BCS), well by well. The plate containing the remaining well is placed on ice for 30 minutes, then 50 μl of the same GABA solution is added. After 5 minutes, the well is washed twice with PBS and then the cells are lysed with 500 μl distilled water, scraped and the liquid is transferred to a vial containing 5 ml scintillation liquid. This well will be used to measure non-specificity. The samples are run through the scintillation counter.
# [1] = test system: PC12 pheochromocytoma cells; assay: Differentiating activity on PC12 pheochromocytoma cells; assay type: cell-based; settings: 100 nM and 1 μM
# Method: The cells are maintained in […] flasks at 37° C. in a humid atmosphere enriched by 5% CO2 in RPMI medium supplemented with 10% horse serum, 5% fetal calf serum, 1% glutamine and 1% penicillin/streptomycin mixture. The horse and fetal calf serums are decomplemented for 40 minutes at 56° C. before use. The cultures are divided when they reach 80% confluence, approximately every 3 days. Each operation is performed by scraping the cells and then centrifugation at 1,000 rpm for 5 minutes, mechanical dissociation of the cell aggregates and inoculation at the dilution desired. Before treatment, the cells are cultivated 5 days in a deprivation medium composed of RPMI supplemented with 1% horse serum, 0.5% fetal calf serum, 1% glutamine, 1% penicillin/streptomycin and 50 ng/ml NGF (nerve growth factor). After 5 days of pretreatment with NGF, the cells are washed twice with PBS (phosphate buffered saline), taken up in deprivation medium, scraped and pelleted at 1,000 rpm for 5 minutes. The cells are then dissociated, counted on a hemocytometer and inoculated at a concentration of 15.6×10^3 cells/cm^2. After 4 hours, the cells are treated by various compounds of the invention at the concentrations desired (stock solutions in absolute ethanol and then a series of dilutions in water). […] At least 20 differentiated cells per well are photographed at random and the length of their neurites are measured using the NeuronJ macro of the ImageJ software. The number of neurites is also counted. Mean total neurite length and number of neurites are then calculated per cell. […] In order to quantify the differentiation of PC12 cells we calculated the ratio between the number of cells emitting dendritic extensions and the total number of cells 48 hours after treatment with our substances at 100 nM and at 1 μM. Morphological changes at the microscopic level were quantified for the cells emitting extensions at approximately 100 cells per condition. Thus number of neurites and mean neurite length per cell were measured using the NeuronJ measurement software by ImageJ.
# dopaminergic neurons = assay: Measurement of tritiated dopamine reuptake in primary mesencephalic cultures; assay type: cell-based, rat; settings: 12 days of culture; 1 nM, 10 nM, 100 nM and 1 μM; FIG. 4
# Method: The primary cultures are treated and cultivated as previously indicated for 12 days in a 24-well plate. The medium is then replaced by a medium lacking serum and enriched with glucose (PBS+5 mM glucose). One well is treated with GBR (5 μM) and will be used to determine nonspecific reuptake. The cells are incubated in this medium for 10 minutes. 50 μl of tritiated dopamine in solution (20 μl of 1 mCi/ml ^3H-dopamine in 1 ml PBS) is added in each well and the cells are incubated for 20 minutes at 37° C.
# The wells are then washed twice with PBS, and then 500 μl distilled water is added. The cells are scraped and the liquid transferred to scintillation vials containing 7 ml scintillation liquid (Biodegradable Counting Scintillant-liquid scintillation spectroscopy, BCS), well by well. The samples are run through the scintillation counter.
# Neurons at 12 days of culture are then cultivated for a short time in the presence of tritiated dopamine (H^3-DA). After washing, the cells are lysed and intraneuronal H^3-DA is recovered and assayed by scintillation counter.
smiles,measurement,setting,value
"C#CC(O)CCCCCCCCCCCCC#Cc1ccc2ccccc2n1 (centres unmarked) [Compound N3, 17-(quinolin-2-yl)heptadec-1,16-diyn-3-ol]",activity of total neurons of the culture (reuptake of tritiated GABA) versus untreated control,GABAergic neurons,increased
same,cells producing extensions (percentage of PC12 cells differentiated) by comparison with untreated cells,"[1]; 48 hours after treatment, FIG. 1A",two to three times as many cells produce extensions
same,mean neurite length per cell compared to the control,"[1]; PC12 cells, FIG. 1B",longer
same,number of neurites per cell compared to the control,"[1]; PC12 cells, FIG. 1B",more
same,reuptake of tritiated dopamine by dopaminergic neurons versus untreated control,dopaminergic neurons,increased
